Reference: patent US11208412B2 (DAEGU-GYEONGBUK MEDICAL INNOVATION FOUNDATION, priority 2017, dated 2021)

Experiments:
Assay in all cases: Kinase selectivity, DiscoverX scanMAX Kinase assay panel (% control)
Assay type in all cases: binding
[1] = biological target: T1, kinases of the scanMAX Kinase assay panel (Homo sapiens, UniProt Q00535); conditions: CDK5; 1 uM
T1 construct: purchased DiscoverX Co. (contract measurement) scanMAX Kinase assay panel
Summary of the method: (§1)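 Single-point screen, 1 uM cpd in DMSO. % ctrl = (cpd − pos ctrl)/(neg ctrl − pos ctrl)×100; pos ctrl = 0%, DMSO neg ctrl = 100%. Hit cutoff <35%.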

[2] = biological target: T2, kinases of the scanMAX Kinase assay panel (Homo sapiens, UniProt Q59H18); conditions: kinase TNNI3K; 1 uM in DMSO
T2 construct: purchased DiscoverX Co. (contract measurement) scanMAX Kinase assay panel
T2 sequence (Q59H18 1-835): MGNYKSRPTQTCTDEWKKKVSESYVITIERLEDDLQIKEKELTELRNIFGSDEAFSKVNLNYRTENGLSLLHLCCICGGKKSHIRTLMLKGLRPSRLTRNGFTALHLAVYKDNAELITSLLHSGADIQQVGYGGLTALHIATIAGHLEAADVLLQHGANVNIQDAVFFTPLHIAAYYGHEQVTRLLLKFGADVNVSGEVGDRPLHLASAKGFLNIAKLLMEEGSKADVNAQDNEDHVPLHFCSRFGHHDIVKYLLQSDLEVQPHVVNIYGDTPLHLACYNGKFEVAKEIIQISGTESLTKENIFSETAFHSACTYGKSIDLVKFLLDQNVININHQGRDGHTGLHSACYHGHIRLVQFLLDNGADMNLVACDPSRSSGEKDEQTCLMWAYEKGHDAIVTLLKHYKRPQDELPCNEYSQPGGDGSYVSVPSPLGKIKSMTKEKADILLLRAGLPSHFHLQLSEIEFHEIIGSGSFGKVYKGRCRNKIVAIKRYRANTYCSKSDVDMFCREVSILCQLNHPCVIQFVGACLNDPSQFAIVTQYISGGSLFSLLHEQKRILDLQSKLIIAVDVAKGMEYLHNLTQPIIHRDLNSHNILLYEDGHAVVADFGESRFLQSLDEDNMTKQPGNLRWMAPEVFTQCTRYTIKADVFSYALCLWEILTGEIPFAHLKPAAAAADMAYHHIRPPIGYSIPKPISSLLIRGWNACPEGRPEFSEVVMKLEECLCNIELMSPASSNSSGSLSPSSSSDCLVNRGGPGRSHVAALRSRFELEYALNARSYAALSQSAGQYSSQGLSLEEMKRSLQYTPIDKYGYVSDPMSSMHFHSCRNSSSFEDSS
Summary of the method: as §1

[3] = biological target: T3, kinases of the scanMAX Kinase assay panel (Homo sapiens, UniProt P52333); conditions: JAK3(JH1domain-catalytic); 1 uM
T3 construct: purchased DiscoverX Co. (contract measurement) scanMAX Kinase assay panel
T3 sequence (P52333 1-1124): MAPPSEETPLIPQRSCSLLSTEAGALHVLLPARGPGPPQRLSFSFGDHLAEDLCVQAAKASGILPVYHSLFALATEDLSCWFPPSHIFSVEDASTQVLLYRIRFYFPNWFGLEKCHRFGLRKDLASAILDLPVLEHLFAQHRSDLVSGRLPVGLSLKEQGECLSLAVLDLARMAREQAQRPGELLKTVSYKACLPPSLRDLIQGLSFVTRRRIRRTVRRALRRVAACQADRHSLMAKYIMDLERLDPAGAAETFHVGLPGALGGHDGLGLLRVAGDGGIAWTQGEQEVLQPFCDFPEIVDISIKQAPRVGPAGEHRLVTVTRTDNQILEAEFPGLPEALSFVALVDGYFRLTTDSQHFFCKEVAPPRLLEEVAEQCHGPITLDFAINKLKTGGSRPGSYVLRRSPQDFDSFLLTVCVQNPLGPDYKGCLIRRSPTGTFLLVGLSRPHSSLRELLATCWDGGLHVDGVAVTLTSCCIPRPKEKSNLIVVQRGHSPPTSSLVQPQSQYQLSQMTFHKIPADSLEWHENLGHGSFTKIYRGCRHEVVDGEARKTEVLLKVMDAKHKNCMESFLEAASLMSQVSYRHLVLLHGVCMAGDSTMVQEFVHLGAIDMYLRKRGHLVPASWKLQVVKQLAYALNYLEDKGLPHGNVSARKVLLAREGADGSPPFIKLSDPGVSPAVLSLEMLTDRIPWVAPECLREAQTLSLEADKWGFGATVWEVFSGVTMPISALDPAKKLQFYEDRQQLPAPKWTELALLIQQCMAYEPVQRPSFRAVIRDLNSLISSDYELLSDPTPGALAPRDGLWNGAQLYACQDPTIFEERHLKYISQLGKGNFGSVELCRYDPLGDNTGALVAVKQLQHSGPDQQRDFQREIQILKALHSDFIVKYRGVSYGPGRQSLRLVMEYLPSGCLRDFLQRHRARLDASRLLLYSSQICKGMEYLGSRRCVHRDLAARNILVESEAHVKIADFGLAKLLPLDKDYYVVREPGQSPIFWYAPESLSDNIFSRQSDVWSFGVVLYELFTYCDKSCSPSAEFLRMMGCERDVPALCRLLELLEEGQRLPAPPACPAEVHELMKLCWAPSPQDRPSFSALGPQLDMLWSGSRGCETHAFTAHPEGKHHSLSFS
Summary of the method: as §1

[4] = biological target: T4, kinases of the scanMAX Kinase assay panel (Homo sapiens, UniProt Q15303); conditions: ERBB4; 1 uM
T4 construct: purchased DiscoverX Co. (contract measurement) scanMAX Kinase assay panel
T4 sequence (Q15303 26-1308): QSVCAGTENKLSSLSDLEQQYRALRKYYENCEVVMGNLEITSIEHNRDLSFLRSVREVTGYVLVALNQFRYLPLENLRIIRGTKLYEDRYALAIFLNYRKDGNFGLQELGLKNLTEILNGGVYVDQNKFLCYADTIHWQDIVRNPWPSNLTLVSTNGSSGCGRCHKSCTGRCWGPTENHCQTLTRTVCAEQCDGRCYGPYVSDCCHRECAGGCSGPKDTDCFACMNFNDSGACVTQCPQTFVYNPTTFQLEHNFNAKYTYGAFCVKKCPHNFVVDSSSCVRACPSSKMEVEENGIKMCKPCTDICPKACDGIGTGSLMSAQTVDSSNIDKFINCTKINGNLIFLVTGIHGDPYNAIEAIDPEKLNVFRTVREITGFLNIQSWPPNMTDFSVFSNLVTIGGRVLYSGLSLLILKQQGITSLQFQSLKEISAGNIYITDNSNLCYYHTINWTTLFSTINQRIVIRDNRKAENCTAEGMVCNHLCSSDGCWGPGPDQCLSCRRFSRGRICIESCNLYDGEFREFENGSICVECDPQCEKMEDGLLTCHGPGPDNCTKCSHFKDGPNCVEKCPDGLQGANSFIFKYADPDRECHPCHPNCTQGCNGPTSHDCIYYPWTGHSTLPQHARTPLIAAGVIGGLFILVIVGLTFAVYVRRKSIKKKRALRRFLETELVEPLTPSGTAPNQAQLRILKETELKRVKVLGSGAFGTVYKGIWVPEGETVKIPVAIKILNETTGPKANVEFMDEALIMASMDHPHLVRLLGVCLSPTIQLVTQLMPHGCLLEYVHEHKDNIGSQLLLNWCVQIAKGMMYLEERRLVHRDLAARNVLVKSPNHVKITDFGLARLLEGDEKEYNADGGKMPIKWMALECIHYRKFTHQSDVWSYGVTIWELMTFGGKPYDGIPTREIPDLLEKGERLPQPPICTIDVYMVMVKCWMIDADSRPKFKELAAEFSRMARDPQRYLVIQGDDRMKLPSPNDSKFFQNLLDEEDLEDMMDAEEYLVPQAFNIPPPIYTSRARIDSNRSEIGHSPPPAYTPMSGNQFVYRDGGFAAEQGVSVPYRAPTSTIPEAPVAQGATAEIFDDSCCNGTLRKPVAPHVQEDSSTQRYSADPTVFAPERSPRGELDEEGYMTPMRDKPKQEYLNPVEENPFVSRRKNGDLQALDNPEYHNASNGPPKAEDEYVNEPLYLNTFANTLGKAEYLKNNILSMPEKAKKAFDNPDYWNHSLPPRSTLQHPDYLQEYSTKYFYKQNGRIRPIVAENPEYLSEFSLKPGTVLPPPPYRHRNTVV
Summary of the method: as §1

[5] = biological target: T5, kinases of the scanMAX Kinase assay panel (Homo sapiens, UniProt Q9BVS4); conditions: kinase RIOK2; 1 uM in DMSO
T5 construct: purchased DiscoverX Co. (contract measurement) scanMAX Kinase assay panel
T5 sequence (Q9BVS4 whole entry): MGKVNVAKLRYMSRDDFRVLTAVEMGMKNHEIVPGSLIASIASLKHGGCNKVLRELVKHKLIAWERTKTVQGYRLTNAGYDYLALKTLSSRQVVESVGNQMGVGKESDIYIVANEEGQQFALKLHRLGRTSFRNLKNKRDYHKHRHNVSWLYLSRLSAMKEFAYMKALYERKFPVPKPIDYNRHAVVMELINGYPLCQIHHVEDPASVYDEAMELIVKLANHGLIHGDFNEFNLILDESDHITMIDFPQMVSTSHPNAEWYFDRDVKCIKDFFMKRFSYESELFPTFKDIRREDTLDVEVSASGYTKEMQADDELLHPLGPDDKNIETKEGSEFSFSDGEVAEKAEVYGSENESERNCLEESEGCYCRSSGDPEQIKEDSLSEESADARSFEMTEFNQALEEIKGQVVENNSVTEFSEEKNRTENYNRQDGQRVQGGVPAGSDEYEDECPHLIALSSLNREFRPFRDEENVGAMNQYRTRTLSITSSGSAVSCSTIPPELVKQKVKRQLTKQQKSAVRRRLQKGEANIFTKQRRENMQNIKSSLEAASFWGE
Summary of the method: as §1

[6] = biological target: T6, kinases of the scanMAX Kinase assay panel (Homo sapiens, UniProt Q9Y2K2); conditions: QSK; 1 uM
T6 construct: purchased DiscoverX Co. (contract measurement) scanMAX Kinase assay panel
T6 sequence (Q9Y2K2 whole entry): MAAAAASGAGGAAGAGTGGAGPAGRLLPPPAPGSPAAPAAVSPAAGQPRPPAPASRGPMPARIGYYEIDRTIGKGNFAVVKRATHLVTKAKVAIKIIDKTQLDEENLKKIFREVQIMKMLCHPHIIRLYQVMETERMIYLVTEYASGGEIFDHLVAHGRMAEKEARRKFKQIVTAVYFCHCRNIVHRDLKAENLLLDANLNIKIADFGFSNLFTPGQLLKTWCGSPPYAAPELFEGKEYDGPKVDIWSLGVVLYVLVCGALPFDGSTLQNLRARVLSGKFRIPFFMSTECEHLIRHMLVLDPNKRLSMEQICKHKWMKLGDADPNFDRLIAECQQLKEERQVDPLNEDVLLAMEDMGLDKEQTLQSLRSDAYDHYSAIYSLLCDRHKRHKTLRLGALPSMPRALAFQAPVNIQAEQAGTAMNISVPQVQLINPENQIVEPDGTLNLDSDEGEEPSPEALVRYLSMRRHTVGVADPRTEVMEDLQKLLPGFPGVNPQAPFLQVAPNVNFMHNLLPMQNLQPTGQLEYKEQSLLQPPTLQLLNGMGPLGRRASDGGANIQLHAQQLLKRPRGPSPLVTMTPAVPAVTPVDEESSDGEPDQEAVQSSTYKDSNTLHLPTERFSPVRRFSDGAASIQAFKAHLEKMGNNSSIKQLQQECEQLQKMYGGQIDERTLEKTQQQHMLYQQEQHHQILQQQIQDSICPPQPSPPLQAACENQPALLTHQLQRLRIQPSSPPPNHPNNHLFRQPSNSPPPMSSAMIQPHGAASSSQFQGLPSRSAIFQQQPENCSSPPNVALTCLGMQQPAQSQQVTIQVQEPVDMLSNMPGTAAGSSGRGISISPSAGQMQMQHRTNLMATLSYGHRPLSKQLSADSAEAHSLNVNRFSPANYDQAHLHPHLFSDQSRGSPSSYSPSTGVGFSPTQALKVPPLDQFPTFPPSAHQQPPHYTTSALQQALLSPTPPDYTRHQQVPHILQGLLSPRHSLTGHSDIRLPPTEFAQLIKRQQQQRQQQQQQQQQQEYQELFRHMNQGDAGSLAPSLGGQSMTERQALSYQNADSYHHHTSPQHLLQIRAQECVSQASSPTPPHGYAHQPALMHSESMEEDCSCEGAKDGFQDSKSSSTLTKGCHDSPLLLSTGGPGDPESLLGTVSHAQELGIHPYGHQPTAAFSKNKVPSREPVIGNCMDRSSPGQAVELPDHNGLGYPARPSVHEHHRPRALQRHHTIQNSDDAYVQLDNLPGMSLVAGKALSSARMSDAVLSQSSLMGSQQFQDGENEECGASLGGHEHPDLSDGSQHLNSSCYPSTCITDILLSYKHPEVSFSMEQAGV
Summary of the method: as §1

[7] = biological target: T7, kinases of the scanMAX Kinase assay panel (Homo sapiens, UniProt P00533, DEL752-759); conditions: EGFR(S752-I759de1); 1 uM
T7 construct: purchased DiscoverX Co. (contract measurement) scanMAX Kinase assay panel
Summary of the method: as §1

[8] = biological target: T8, kinases of the scanMAX Kinase assay panel (Homo sapiens, UniProt Q86V86); conditions: PIM3; 1 uM
T8 construct: purchased DiscoverX Co. (contract measurement) scanMAX Kinase assay panel
Summary of the method: as §1

[9] = biological target: T9, kinases of the scanMAX Kinase assay panel (Homo sapiens, UniProt O15075); conditions: DCAMKL1; 1 uM
T9 construct: purchased DiscoverX Co. (contract measurement) scanMAX Kinase assay panel
T9 sequence (O15075 whole entry): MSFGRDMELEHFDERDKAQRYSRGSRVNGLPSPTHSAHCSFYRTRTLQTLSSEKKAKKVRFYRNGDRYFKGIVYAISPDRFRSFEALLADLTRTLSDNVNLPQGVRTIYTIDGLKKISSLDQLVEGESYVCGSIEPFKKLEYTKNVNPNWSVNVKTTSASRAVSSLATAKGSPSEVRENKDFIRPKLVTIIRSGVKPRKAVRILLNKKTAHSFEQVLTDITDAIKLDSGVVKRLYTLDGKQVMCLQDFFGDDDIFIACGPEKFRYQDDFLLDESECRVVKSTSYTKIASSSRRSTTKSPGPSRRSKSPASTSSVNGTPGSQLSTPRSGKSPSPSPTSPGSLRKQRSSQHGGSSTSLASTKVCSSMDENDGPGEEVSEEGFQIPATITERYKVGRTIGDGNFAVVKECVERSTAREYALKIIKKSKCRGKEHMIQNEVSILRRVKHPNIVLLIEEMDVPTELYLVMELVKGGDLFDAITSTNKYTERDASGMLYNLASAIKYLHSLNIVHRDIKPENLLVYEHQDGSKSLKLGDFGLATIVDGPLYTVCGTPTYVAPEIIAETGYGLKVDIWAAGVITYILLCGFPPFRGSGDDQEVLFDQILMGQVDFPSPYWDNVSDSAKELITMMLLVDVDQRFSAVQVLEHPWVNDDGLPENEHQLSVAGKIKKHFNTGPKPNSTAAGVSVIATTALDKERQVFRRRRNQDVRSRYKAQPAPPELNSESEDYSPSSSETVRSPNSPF
Summary of the method: as §1

T1 sequence (Q00535 whole entry): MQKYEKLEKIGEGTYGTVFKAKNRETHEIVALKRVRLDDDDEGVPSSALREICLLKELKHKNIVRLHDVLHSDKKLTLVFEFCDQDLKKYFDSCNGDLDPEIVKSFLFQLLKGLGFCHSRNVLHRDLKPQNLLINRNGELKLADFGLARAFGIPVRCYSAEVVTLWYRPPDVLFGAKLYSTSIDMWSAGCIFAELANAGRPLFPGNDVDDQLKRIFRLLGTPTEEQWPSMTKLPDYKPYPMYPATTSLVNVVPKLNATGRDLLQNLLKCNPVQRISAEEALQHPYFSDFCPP

Row | Compound | remaining binding at 1 µM [1] | remaining binding at 1 µM [2] | remaining binding at 1 µM [3] | remaining binding at 1 µM [4] | remaining binding at 1 µM [5] | remaining binding at 1 µM [6] | remaining binding at 1 µM [7] | remaining binding at 1 µM [8] | remaining binding at 1 µM [9]
1 | CCNc1nc(Nc2ccc(C(=O)N3CCC(N4CCOCC4)CC3)cc2OC)nc2[nH]cc(C(F)(F)F)c12 [Example 104, (4-((4-(ethylamino)-5-(trifluoromethyl)-7H-pyrrolo[2,3-d]pyrimidine-2-yl)amino)-3-methoxyphenyl)(4-morpholinopiperidine-1-yl)methanone] | 100% | 100% | 100% | 100% | 75% | 97% | 100% | 73% | 49%
2 | CC1(Nc2nc(Nc3cnn([C@H]4CCN(C5COC5)C[C@@H]4F)c3Cl)nc3[nH]cc(C#N)c23)CC1 [Example 52, 2-((5-chloro-1-((3S,4S)-3-fluoro-1-(oxetane-3-yl)piperidine-4-yl)-1H-pyrazole-4-yl)amino)((1-methylcyclopropyl)amino)-7H-pyrrolo[2,3-d]pyrimidine-5-carbonitrile] | 63% | 93% | 0% | 45% | 1.1% | 87% | 94% | 49% | 34%
3 | CNc1nc(Nc2ccc(C(=O)N3CCOCC3)cc2OC)nc2[nH]cc(C#N)c12 [Example 1, 2-((2-methoxy-4-(morpholine-4-carbonyl)phenyl)amino)-4-(methylamino)-7H-pyrrolo[2,3-d]pyrimidine-5-carbonitrile] | 96% | 99% | 64% | 99% | 47% | 79% | 76% | 98% | 57%
